# Source: patent US20050208037A1, “Thioredoxin increases redox-cycling of anticancer agents thereby sensitizes cancer cells to apoptosis” (Board of Regents, The University of Texas System, priority 2003, published 2005)
# Legend:
# [1] = system: Trx9 cells (MCF-7 clones expressing thioredoxin); assay: Superoxide production in cell lysate by SOD-inhibitable reduction of ferricytochrome c; assay type: biochemical, human; settings: Trx9 cells; for inhibition of SOD-inhibitable rate of O2— generation: inhibitor 50 μM, then 10 μM doxorubicin
# Procedure: Determination of superoxide production by reduction of ferricytochrome c. Superoxide production was measured as superoxide dismutase (SOD) inhibitable reduction of ferricytochrome c (Azzi et al. 1975). Cells were sonicated in potassium phosphate buffer (0.05M, pH 7.8 plus 1 mM EDTA), centrifuged and the supernatant was used for the assay. To determine the superoxide generation in the cell lysate, the supernatant was incubated with 10 μM drug and 10 μM cytochrome c, with or without 1U SOD to determine SOD inhibitable rate. The specificity of thioredoxin mediated superoxide generation in the supernatant was detected by pre-incubation of cell lysates with anti-human thioredoxin antibody (American Diagnostica, Greenwich, Conn.) for 15 min. All reactions were performed in triplicate. The reduction of ferricytochrome c was measured both in kinetic and end point mode with path check on for 1 hr duration at a wavelength of 550 nm using a Spectramax 190 plate reader (Molecular Devices). Total protein was quantified using Bradford protein assay (Biorad) and the superoxide generation was determined per milligram of protein in the extracts.
# p53 in Trx9 cells [2] = assay: Western blotting of p53 and phospho-p53 (ser-15); assay type: cell-based, human; settings: daunomycin treated Trx9 cells, 4 hr
# Text: Western blotting. Equal amounts of protein were resolved on 10% SDS-polyacrylamide gel electrophoresis, and transferred to nitrocellulose membrane (Hybond-ECL, Amersham Pharmacia Biotech) immunoblotted with anti-p53 or anti-p53 phospho ser-15 (Cell Signaling Technology, Beverly, Mass.) and visualized using Lumiglo system with antirabbit conjugated HRP. For cytochrome c determination the cytosolic protein was resolved on 15% SDS-PAGE and immunoblotted using anti-cytochrome c (BD Pharmingen, San Diego, Calif.) and visualized using the ECL system (Amersham Pharmacia Biotech, Piscataway, N.J.) and anti-mouse IgG conjugated HRP (Santa Cruz Biotech, California).
# p53 in Trx9 cells [3] = assay: Electrophoretic mobility shift assay of p53 DNA binding; assay type: cell-based, human; settings: daunomycin treated Trx9 cells, 4 hr
# Procedure: Nuclear Extract preparation. Nuclear extract was prepared as described previously (Das, 2001). […] The extracts were then centrifuged at 14,000 rpm for 25 min and the supernatant was saved as nuclear extract in −70° C. for further experiments. Protein was quantified using Bradford protein assay (Biorad).
# Electrophoretic Mobility shift assay (EMSA). For the EMSA the p53 consensus oligonucleotide was obtained from Genosys 5′-[…]-3′ (SEQ ID NO:9) and end labeled using T4 Poly nucleotide kinase (New England Biolabs, Beverly, Mass.) and [γ-^32P] ATP (Perkin Elmer, Boston, Mass.) in 10× kinase buffer supplied with the enzyme. […] The nuclear protein was separated by electrophoresis using 4% native polyacrylamide gel and 0.25× of TBE (Tris-Borate-EDTA) as running buffer. The gels were dried and exposed to Kodax Biomax X-ray film overnight.
# [4] = metabolite of daunorubicin; cited from earlier work
SMILES,inhibition of SOD-inhibitable rate of O2— generation [1],effect on p53 ser-15 phosphorylation (p53 in Trx9 cells [2]),other results
"Nn1nnc2ccccc21 [ABT, 1-Aminobenzotriazole]",54%,,
"c1ccc2c(c1)[I+]c1ccccc1-2 [DPIC, dipheyleneiodonium]",,abolished,"effect on generation of O2— ([1]; DPIC 25 or 50 μM pre-incubation, 10 μM doxorubicin): inhibited generation of O2—; effect on p53 DNA binding (p53 in Trx9 cells [3]; DPIC 50 μM): abolished"
O=C(O)c1ccc(/C2=C3\C=CC(=N3)/C(c3ccc(C(=O)O)cc3)=c3/cc/c4[n]3[Mn]([Cl])[n]3c2ccc3/C(c2ccc(C(=O)O)cc2)=C2/C=CC(=N2)\C=4c2ccc(C(=O)O)cc2)cc1 [MnTBAP],,no appreciable decrease,reduction in p53 DNA binding activity (densitometric analysis) (p53 in Trx9 cells [3]): about 30%
"Nc1ncnc2c1ncn2[C@@H]1O[C@H](COP(=O)(O)O)[C@@H](O)[C@H]1OP(=O)(O)O [PAMP, 2′-Phospho-5′-AMP]",76%,,
COc1cccc2c1C(=O)c1c(O)c3c(c(O)c1C2=O)C[C@@](O)([C@H](C)O)C[C@@H]3O[C@H]1C[C@H](N)[C@H](O)[C@H](C)O1 [daunorubicinol],,,half-life of active metabolite [4]: about 27 hr
